From ChEMBL document CHEMBL5291721, “A preclinical secondary pharmacology resource illuminates target-adverse drug reaction associations of marketed drugs” (Nat Commun, 2023)

Experiments:
[1] = molecular target: cGMP-inhibited 3',5'-cyclic phosphodiesterase 3A (Homo sapiens, UniProt Q14432); assay type: functional
[2] = molecular target: 5-hydroxytryptamine receptor 2B (Homo sapiens, UniProt P41595); assay type: functional, cell-based
[3] = molecular target: T1, 5-hydroxytryptamine receptor 1A (Homo sapiens, UniProt P08908)
T1 sequence (P08908 whole entry): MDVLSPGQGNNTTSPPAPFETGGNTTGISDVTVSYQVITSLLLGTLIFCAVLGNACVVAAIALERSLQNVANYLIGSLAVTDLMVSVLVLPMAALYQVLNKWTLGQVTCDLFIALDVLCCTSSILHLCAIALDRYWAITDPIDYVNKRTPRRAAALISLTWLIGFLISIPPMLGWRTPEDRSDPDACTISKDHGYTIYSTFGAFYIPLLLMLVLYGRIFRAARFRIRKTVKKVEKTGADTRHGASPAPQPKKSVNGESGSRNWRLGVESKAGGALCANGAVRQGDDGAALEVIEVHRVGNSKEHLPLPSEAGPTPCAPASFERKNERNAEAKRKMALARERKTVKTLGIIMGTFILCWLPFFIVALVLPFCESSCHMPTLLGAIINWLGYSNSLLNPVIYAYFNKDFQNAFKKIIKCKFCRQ

Thromboxane A2 receptor [4] = molecular target: T2, Thromboxane A2 receptor (Homo sapiens, UniProt P21731); assay type: functional, cell-based
T2 sequence (P21731 whole entry): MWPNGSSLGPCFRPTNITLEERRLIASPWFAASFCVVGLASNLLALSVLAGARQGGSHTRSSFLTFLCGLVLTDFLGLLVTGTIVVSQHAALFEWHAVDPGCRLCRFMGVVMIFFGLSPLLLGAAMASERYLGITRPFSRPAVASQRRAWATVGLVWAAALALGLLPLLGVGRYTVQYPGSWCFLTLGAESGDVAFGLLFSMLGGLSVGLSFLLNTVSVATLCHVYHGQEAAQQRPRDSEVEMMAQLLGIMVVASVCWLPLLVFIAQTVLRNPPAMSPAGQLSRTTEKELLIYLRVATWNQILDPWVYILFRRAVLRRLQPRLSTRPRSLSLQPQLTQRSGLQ

[5] = molecular target: Voltage-gated inwardly rectifying potassium channel KCNH2 (Homo sapiens, UniProt Q12809); assay type: functional
Voltage-gated inwardly rectifying potassium channel KCNH2, sequence (Q12809 whole entry): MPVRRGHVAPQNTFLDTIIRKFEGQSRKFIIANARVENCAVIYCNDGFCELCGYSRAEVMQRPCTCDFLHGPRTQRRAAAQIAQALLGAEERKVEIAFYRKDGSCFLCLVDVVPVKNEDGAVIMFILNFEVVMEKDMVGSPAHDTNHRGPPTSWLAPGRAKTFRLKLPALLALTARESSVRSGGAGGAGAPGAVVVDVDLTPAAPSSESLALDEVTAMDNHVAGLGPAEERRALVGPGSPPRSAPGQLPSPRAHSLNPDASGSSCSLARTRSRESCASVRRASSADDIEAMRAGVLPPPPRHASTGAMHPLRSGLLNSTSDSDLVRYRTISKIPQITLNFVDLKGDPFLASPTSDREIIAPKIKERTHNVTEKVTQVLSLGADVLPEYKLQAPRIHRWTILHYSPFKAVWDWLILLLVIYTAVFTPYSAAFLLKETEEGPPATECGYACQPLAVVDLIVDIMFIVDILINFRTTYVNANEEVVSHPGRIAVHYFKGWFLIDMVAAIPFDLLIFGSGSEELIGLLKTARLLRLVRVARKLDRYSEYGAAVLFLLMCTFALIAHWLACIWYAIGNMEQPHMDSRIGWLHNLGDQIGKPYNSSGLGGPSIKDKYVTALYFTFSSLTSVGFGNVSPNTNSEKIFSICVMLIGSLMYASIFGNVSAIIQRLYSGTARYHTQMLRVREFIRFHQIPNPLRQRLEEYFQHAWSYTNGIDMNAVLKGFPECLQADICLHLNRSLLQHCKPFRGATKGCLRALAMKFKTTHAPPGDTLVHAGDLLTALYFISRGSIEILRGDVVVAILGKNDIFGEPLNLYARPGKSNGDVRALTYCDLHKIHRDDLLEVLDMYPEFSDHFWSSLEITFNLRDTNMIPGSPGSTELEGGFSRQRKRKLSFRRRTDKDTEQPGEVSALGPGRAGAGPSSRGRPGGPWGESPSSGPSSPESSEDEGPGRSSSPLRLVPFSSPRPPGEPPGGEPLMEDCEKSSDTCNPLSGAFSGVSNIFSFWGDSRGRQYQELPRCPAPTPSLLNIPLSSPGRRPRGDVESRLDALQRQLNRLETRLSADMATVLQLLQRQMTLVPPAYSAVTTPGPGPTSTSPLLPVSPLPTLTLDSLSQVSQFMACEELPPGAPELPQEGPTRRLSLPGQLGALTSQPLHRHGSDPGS

[6] = molecular target: T3, Muscarinic acetylcholine receptor M2 (Homo sapiens, UniProt P08172)
T3 sequence (P08172 whole entry): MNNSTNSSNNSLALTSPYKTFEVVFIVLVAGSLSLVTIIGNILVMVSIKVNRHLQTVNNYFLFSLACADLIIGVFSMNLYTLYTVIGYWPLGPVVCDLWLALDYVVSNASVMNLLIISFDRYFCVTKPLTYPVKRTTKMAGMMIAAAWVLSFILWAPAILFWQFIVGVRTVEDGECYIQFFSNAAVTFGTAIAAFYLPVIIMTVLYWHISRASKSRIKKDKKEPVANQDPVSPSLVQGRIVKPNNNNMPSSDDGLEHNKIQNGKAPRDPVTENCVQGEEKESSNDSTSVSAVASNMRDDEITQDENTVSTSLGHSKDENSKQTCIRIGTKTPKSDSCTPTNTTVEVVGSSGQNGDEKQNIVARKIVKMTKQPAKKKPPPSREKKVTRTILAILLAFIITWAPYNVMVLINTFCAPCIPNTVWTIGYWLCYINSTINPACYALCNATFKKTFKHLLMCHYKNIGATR

[7] = molecular target: Prostaglandin G/H synthase 1 (Homo sapiens, UniProt P23219); assay type: functional
Prostaglandin G/H synthase 1, sequence (P23219 whole entry): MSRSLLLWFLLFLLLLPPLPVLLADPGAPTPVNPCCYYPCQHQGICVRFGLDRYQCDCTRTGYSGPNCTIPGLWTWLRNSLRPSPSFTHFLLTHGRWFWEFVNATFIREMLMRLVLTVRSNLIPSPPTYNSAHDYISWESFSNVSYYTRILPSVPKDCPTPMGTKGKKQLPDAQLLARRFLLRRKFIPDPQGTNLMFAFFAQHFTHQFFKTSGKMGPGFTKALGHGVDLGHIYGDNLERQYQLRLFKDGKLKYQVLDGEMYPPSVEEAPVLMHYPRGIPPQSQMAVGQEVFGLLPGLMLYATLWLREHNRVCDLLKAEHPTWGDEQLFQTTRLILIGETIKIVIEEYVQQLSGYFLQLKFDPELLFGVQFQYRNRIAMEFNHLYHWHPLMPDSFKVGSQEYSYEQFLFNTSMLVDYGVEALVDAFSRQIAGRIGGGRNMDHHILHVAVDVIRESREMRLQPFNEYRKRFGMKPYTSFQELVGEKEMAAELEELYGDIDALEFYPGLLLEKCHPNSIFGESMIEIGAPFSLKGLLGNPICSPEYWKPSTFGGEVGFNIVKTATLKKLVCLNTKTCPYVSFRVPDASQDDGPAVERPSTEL

Progesterone receptor = molecular target: T4, Progesterone receptor (Homo sapiens, UniProt P06401)
T4 sequence (P06401 whole entry): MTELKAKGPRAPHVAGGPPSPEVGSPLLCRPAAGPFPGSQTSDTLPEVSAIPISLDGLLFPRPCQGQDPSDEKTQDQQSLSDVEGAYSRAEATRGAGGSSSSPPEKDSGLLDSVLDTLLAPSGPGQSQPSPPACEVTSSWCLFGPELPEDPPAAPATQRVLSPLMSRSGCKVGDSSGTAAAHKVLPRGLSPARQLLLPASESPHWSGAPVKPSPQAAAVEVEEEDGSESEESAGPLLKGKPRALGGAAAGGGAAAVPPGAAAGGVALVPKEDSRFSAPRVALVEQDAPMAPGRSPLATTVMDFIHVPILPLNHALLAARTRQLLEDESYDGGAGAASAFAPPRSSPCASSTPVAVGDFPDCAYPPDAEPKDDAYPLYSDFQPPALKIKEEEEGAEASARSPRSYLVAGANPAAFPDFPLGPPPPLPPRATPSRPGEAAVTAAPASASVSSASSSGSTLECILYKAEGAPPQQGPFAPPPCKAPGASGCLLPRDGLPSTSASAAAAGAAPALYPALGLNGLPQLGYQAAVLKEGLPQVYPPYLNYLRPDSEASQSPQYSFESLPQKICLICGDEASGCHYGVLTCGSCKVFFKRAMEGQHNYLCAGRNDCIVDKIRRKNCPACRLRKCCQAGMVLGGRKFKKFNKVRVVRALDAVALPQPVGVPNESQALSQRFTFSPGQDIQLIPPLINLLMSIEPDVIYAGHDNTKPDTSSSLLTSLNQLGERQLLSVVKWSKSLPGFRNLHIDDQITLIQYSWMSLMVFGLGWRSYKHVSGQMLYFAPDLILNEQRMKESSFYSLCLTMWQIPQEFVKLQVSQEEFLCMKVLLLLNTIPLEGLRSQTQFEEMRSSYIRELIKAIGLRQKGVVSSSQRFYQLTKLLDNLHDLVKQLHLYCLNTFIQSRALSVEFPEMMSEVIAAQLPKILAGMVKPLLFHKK

Histamine H3 receptor = Histamine H3 receptor (Homo sapiens, UniProt Q9Y5N1)
Histamine H3 receptor, sequence (Q9Y5N1 whole entry): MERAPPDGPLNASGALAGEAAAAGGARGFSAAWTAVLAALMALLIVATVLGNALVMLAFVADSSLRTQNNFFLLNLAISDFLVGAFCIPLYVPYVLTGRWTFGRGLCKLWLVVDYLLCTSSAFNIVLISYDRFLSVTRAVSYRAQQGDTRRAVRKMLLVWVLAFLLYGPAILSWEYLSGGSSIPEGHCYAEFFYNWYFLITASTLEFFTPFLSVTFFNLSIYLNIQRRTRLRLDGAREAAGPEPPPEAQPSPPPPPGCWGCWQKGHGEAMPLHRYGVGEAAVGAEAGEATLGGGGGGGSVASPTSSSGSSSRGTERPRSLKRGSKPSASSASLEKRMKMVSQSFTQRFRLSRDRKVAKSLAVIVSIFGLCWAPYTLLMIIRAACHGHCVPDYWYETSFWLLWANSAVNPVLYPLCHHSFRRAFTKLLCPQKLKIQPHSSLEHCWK

Thromboxane A2 receptor [8] = molecular target: T2, Thromboxane A2 receptor; assay type: functional, cell-based; remark: listed apart in the source
Mu-type opioid receptor = Mu-type opioid receptor (Homo sapiens, UniProt P35372)
Mu-type opioid receptor, sequence (P35372 whole entry): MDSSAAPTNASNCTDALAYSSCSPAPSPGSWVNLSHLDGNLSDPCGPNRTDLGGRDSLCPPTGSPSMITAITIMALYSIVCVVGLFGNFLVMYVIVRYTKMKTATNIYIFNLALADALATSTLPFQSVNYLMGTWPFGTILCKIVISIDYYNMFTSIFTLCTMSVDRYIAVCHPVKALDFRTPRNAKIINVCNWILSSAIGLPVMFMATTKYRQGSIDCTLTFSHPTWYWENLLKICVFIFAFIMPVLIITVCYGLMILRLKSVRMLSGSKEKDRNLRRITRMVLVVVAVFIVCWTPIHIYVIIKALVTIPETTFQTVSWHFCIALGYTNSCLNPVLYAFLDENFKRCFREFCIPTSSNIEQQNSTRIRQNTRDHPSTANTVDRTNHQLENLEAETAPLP
Also: assay procedure not described here.

5-hydroxytryptamine receptor 2B, sequence (P41595 whole entry): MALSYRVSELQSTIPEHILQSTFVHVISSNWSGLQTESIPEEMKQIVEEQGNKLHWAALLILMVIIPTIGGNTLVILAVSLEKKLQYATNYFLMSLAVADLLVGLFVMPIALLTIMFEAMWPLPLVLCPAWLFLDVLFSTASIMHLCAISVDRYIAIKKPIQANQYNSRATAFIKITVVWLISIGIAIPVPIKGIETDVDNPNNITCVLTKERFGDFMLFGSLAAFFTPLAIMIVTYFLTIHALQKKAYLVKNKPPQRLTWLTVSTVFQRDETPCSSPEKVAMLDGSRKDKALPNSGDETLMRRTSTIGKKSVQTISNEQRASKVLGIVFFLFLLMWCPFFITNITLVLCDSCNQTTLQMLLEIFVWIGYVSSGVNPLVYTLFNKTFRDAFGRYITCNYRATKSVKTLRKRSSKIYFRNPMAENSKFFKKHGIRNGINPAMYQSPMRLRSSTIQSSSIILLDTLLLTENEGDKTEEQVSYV
cGMP-inhibited 3',5'-cyclic phosphodiesterase 3A, sequence (Q14432 whole entry): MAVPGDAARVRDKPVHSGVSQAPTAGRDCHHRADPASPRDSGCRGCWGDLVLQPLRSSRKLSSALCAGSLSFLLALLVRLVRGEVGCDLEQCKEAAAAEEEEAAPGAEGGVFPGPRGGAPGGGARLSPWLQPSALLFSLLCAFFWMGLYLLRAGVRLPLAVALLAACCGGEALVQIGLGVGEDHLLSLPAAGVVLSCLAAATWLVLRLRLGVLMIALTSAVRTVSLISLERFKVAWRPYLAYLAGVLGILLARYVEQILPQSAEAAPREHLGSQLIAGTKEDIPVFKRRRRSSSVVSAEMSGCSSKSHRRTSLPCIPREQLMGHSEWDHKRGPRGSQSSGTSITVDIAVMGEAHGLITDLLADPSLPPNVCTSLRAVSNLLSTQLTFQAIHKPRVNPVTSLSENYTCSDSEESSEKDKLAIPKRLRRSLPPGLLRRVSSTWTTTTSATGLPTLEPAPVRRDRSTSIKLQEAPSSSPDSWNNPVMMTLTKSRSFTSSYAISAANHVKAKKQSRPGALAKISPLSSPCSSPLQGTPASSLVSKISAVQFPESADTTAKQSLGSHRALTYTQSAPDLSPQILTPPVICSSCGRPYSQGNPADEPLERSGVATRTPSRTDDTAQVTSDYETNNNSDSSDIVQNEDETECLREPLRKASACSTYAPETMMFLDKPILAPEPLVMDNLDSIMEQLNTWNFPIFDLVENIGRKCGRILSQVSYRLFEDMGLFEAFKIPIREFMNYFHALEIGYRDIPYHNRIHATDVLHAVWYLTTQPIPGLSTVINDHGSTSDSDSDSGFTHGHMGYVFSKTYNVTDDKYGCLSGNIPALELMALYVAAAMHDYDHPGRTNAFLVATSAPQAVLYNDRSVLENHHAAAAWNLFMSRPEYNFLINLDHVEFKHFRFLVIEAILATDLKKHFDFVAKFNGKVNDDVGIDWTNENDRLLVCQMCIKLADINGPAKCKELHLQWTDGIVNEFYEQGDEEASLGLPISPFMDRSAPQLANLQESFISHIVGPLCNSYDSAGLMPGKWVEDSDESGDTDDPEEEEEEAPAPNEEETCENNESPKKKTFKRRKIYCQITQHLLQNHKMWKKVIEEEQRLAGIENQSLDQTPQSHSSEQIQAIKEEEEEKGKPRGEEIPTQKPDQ

SMILES | AC50 [1] | AC50 [2] | AC50 [3] | AC50 (Thromboxane A2 receptor [4]) | AC50 [5] | AC50 [6] | AC50 [7] | AC50 (Progesterone receptor) | AC50 (Histamine H3 receptor) | AC50 (Thromboxane A2 receptor [8]) | AC50 (Mu-type opioid receptor)
[H]/N=C(\N/C(=N/[H])Nc1ccc(Cl)cc1)NC(C)C [PROGUANIL] | > 30 µM | > 30 µM | > 30 µM | > 30 µM | 19 µM | > 30 µM | > 30 µM | > 30 µM | > 30 µM | > 30 µM | > 30 µM
C#C[C@]1(O)CC[C@H]2[C@@H]3CCC4=CC(=O)CC[C@@H]4[C@H]3C(=C)C[C@@]21CC [ETONOGESTREL] | > 30 µM | > 30 µM | > 30 µM | > 30 µM | > 30 µM | > 30 µM | > 30 µM | 0.003 µM | > 30 µM | > 30 µM | 10.5 µM
C[C@H]1O[C@@H](n2cc(F)c(=O)[nH]c2=O)[C@H](O)[C@@H]1O [DOXIFLURIDINE] | > 30 µM | > 30 µM | > 30 µM | > 30 µM | > 30 µM | > 30 µM | > 30 µM | > 30 µM | > 30 µM | > 30 µM | > 30 µM
N#Cc1ccc2c(c1)N(CCCN1CCC(O)CC1)c1ccccc1S2 [PERICIAZINE] | > 30 µM | > 30 µM | 8.8 µM | 17 µM | 5.82 µM | 5.87 µM | 21.5 µM | 22.1 µM | > 30 µM | > 30 µM | 4.59 µM
CN(C)[C@@H]1C(O)=C(C(N)=O)C(=O)[C@@]2(O)C(O)=C3C(=O)c4c(O)ccc(Cl)c4[C@@](C)(O)[C@H]3C[C@@H]12 [CHLORTETRACYCLINE] | > 30 µM | > 30 µM | > 30 µM | > 30 µM | > 30 µM | > 30 µM | > 30 µM | > 30 µM | > 30 µM | > 30 µM | > 30 µM
C=CCN1CC[C@]23CCCC[C@H]2[C@H]1Cc1ccc(O)cc13 [LEVALLORPHAN] | > 30 µM | > 30 µM | 27.6 µM | > 30 µM | 14 µM | 8.91 µM | > 30 µM | > 30 µM | > 30 µM | > 30 µM | 0.003 µM
CNC(=O)Oc1cccc2ccccc12 [CARBARIL] | > 30 µM | > 30 µM | > 30 µM | > 30 µM | > 30 µM | > 30 µM | 3.71 µM | 14.3 µM | > 30 µM | > 30 µM | > 30 µM
CC(CN1CC(=O)NC(=O)C1)N1CC(=O)NC(=O)C1 (stereo unspecified) [RAZOXANE] | > 30 µM | > 30 µM | > 30 µM | > 30 µM | > 30 µM | > 30 µM | 20.4 µM | > 30 µM | > 30 µM | > 30 µM | > 30 µM
CC(CCc1ccccc1)NCC(O)c1ccc(O)c(C(N)=O)c1 (stereo unspecified) [LABETALOL] | > 30 µM | > 30 µM | 0.104 µM | > 30 µM | > 30 µM | > 30 µM | > 30 µM | > 30 µM | > 30 µM | > 30 µM | 2.42 µM
Nc1ccc(C(=O)Oc2ccccc2)c(O)c1 [PHENYL AMINOSALICYLATE] | > 30 µM | > 30 µM | > 30 µM | 17.2 µM | > 30 µM | > 30 µM | > 30 µM | > 30 µM | > 30 µM | > 30 µM | > 30 µM
CCn1cc(C(=O)O)c(=O)c2cc3c(cc21)OCO3 [OXOLINIC ACID] | > 30 µM | > 30 µM | > 30 µM | > 30 µM | > 30 µM | > 30 µM | > 30 µM | > 30 µM | > 30 µM | > 30 µM | > 30 µM
C[C@]1(Cn2ccnn2)[C@H](C(=O)O)N2C(=O)C[C@H]2S1(=O)=O [TAZOBACTAM] | > 30 µM | > 30 µM | > 30 µM | > 30 µM | > 30 µM | > 30 µM | > 30 µM | > 30 µM | > 30 µM | > 30 µM | > 30 µM
COc1c2ccoc2cc2oc(=O)ccc12 [BERGAPTEN] | > 30 µM | > 30 µM | > 30 µM | > 30 µM | > 30 µM | > 30 µM | > 30 µM | 12.4 µM | > 30 µM | > 30 µM | > 30 µM
CC(C)OC(=O)CCC/C=C\C[C@@H]1[C@@H](/C=C/C(F)(F)COc2ccccc2)[C@H](O)C[C@@H]1O [TAFLUPROST] | > 30 µM | > 30 µM | > 30 µM | 29.6 µM | > 30 µM | > 30 µM | > 30 µM | > 30 µM | > 30 µM | > 30 µM | > 30 µM
OC[C@H]1O[C@@](CO)(O[C@H]2O[C@H](CO)[C@@H](O)[C@H](O)[C@H]2O)[C@@H](O)[C@@H]1O [SUCROSE] | > 30 µM | > 30 µM | > 30 µM | > 30 µM | > 30 µM | > 30 µM | > 30 µM | > 30 µM | > 30 µM | > 30 µM | > 30 µM
CC[C@H]1OC(=O)[C@H](C)C(=O)[C@H](C)[C@@H](O[C@@H]2O[C@H](C)C[C@H](N(C)C)[C@H]2O)[C@](C)(OC)C[C@@H](C)C(=O)[C@H](C)[C@H]2N(CCCCn3cnc(-c4cccnc4)c3)C(=O)O[C@]12C [TELITHROMYCIN] | > 30 µM | > 30 µM | > 30 µM | > 30 µM | > 30 µM | > 30 µM | > 30 µM | > 30 µM | > 30 µM | > 30 µM | > 30 µM
